Assay results taken from US11517556B2, “Composition for BKCa channel activation” (GWANGJU INSTITUTE OF SCIENCE AND TECHNOLOGY, priority 2016, dated 2022).

Columns and labels:
[1] = target: T1, rat BKCa channel α-subunit (rSlo1) (Rattus norvegicus, UniProt Q62976); experiment: Single-channel patch-clamp recording, outside-out patches of Xenopus oocytes; format: cell-based; conditions: 5 μM
T1 construct: expressed in transfected cells; host or cells: Xenopus laevis oocytes injected with cRNA (vector pNBC1.0)
T1 sequence (Q62976 whole entry): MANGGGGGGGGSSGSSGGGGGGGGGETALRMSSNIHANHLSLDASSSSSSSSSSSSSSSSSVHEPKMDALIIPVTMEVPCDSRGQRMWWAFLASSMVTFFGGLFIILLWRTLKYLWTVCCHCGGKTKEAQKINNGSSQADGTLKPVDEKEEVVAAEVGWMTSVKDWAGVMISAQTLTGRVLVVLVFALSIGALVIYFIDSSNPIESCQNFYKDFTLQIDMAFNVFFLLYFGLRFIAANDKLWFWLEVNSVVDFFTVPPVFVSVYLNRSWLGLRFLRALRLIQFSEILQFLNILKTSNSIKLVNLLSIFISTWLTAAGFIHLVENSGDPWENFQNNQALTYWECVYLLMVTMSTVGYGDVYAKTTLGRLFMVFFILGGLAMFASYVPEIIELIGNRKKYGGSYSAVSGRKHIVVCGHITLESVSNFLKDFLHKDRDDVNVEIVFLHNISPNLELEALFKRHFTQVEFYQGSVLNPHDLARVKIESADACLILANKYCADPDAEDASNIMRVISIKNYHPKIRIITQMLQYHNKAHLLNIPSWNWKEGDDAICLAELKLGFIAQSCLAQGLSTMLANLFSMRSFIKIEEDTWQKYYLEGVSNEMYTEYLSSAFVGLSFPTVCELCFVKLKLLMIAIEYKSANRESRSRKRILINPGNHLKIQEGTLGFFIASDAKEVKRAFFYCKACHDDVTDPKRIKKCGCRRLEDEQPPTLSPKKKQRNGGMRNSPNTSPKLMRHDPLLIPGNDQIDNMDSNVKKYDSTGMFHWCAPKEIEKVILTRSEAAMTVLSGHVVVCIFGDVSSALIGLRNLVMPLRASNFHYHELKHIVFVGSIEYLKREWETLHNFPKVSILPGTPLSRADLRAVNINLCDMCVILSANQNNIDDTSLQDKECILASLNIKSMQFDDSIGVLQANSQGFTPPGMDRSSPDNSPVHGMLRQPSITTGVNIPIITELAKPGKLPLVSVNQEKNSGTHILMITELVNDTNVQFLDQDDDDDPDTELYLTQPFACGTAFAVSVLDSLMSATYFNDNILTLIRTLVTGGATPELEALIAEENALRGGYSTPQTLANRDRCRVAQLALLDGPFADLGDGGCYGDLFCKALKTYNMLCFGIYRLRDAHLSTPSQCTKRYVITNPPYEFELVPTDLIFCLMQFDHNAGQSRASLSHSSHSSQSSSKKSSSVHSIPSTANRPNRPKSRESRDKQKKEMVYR
From the text: (§1) Xenopus laevis oocytes heterologously expressing a BKCa channel α-subunit (Slo1) were used for electrophysiological recording. Subcloning and functional expression of the rat BKCa channel α-subunit using the oocyte expression vector pNBC1.0 has been reported (Ha et al., 2000). Sequence information of Slo1 used in the present disclosure is published in GenBank as expression number AF135265. Plasmid DNA was linearized using Notl restriction enzyme, and complementary RNA (cRNA) was synthesized using T7 RNA polymerase in the presence of nucleoside triphosphate and cap analog m7G(5′)ppp(5′)G from a linear form of DNA using mMessage Machine (Ambion).
Oocytes from stages V to VI were surgically removed from ovarian lobes of anesthetized X. laevis (Xenopus I, Dexter, Mich.). The removed oocytes were transferred to a Ca^2+-free oocyte ringer's (OR) culture medium (86 mM NaCl, 1.5 mM KCl, 2 mM MgCl2 and 10 mM HEPES, pH 7.6). The oocytes were cultured in Ca^2+-free OR medium containing 3 mg/ml collagenase (Worthington Biochemicals) for 1 hour and 30 minutes to 2 hours. This removed the follicular cell layer of the oocyte. Then, the oocytes were widely washed with Ca^2+-free OR culture medium and ND-96 medium (96 mM NaCl, 2 mM KCl, 1.8 mM CaCl2, 1 mM MgCl2, 5 mM HEPES, and 50 µg/ml gentamycin, pH 7.6). The washed oocytes were stored at 18° C. in ND-96 medium. Before oocyte was used, the oocyte was stabilized for at least one day. After the stabilization, approximately 50 ng of synthesized cRNA in 50 nl of nuclease-free water was injected into each oocyte for macroscopic current recording, and approximately 1 ng of synthesized cRNA in 50 nl of nuclease-free water was injected into each oocyte for single-channel recording using a micro-dispenser (Drummond Scientific, Broomall, Pa.). The cRNA-injected oocytes were cultured in ND-96 medium for 1 to 3 days at 18 degree C. Immediately prior to the patch-clamp experiment, the oocyte's vitelline membrane was manually removed with fine forceps. […]
A single BKCa channel was readily activated by a membrane potential simply transferred at 100 mV at a high concentration of intracellular Ca^2+. For the single-channel assay, the switching between the closed and open conditions was determined by setting a potency at a half of a unitary current amplitude. […] The macroscopic current of the expressed BKCa channel was activated by a voltage-clamp pulse delivered from a holding potential of −100 mV at 10 mV increment to a membrane potential of typically −80 to 200 mV, A dwell-time of recorded open and close events for the single BKCa channel was analyzed using a linear histogram method. […]

[2] = target: T1, rat BKCa channel α-subunit (rSlo1); experiment: Macroscopic current patch-clamp recording, Xenopus oocyte excised patches; format: cell-based
From the text: as §1
Oocytes from stages V to VI were surgically removed from ovarian lobes of anesthetized X. laevis (Xenopus I, Dexter, Mich.). The removed oocytes were transferred to a Ca^2+-free oocyte ringer's (OR) culture medium (86 mM NaCl, 1.5 mM KCl, 2 mM MgCl2 and 10 mM HEPES, pH 7.6). The oocytes were cultured in Ca^2+-free OR medium containing 3 mg/ml collagenase (Worthington Biochemicals) for 1 hour and 30 minutes to 2 hours. This removed the follicular cell layer of the oocyte. Then, the oocytes were widely washed with Ca^2+-free OR culture medium and ND-96 medium (96 mM NaCl, 2 mM KCl, 1.8 mM CaCl2, 1 mM MgCl2, 5 mM HEPES, and 50 µg/ml gentamycin, pH 7.6). The washed oocytes were stored at 18° C. in ND-96 medium. Before oocyte was used, the oocyte was stabilized for at least one day. After the stabilization, approximately 50 ng of synthesized cRNA in 50 nl of nuclease-free water was injected into each oocyte for macroscopic current recording, and approximately 1 ng of synthesized cRNA in 50 nl of nuclease-free water was injected into each oocyte for single-channel recording using a micro-dispenser (Drummond Scientific, Broomall, Pa.). The cRNA-injected oocytes were cultured in ND-96 medium for 1 to 3 days at 18 degree C. Immediately prior to the patch-clamp experiment, the oocyte's vitelline membrane was manually removed with fine forceps.
[…] Patch pipettes were prepared from borosilicate and glass (WPI, Sarasota, Fla.). The pipettes were fire-polished with a resistance of 2 to 4 MΩ for patch recording. For single-channel recording, the patch pipettes were fire-polished with 4 to 8 MΩ resistors. To reduce electrical noise, the pipettes were coated with beeswax. Using an Axopatch 200B amplifier (Axon Instruments), the channel current was amplified. Then, the current was low-pass filtered at 1 kHz using a four-pole Bessel filter. Then, the current was digitized at a rate of 10 points/ms using a Digidata 1200A (Axon Instruments).
A single BKCa channel was readily activated by a membrane potential simply transferred at 100 mV at a high concentration of intracellular Ca^2+. For the single-channel assay, the switching between the closed and open conditions was determined by setting a potency at a half of a unitary current amplitude. To determine the single-channel conductance of the expressed channel, the average amplitude of the channel current was obtained from the histograms fitted with Gaussian distributions. An average current for a membrane-pass voltage is shown. A slope-conductance values were obtained from linear regression. The macroscopic current of the expressed BKCa channel was activated by a voltage-clamp pulse delivered from a holding potential of −100 mV at 10 mV increment to a membrane potential of typically −80 to 200 mV, A dwell-time of recorded open and close events for the single BKCa channel was analyzed using a linear histogram method. The dwell-time distribution was fitted into a single index using simplex-least-squares fitting methods (Clampfit, Axon Instruments). A peak in the dwell-time distribution was located at a time-constant of an exponential component.
To prevent activation of endogenous calcium-activated chloride channels, solutions for single and macroscopic channel recording contained gluconate as a non-permeant negative ion. […]

[3] = system: spontaneous hypertensive rats (SHR); experiment: Voiding behavior of spontaneous hypertensive rats (SHR); format: in vivo, rat
Experimental: The voiding frequency was monitored for 3 hours. FIG. 9B represents a total number of voidings. Each symbol or bar represents average±SEM of 5 (WKY) or 7 (SHR) animals (*** P<0.001).
The cumulative voiding frequency is shown in FIG. 9A for WKY and SHR orally administered with kurarinone. The administration of kurarinone may allow distinct differences in voiding frequency to be evident between WKY and SHR. […] In the WKY control rat, the decrease of the voiding frequency was not observed.

[4] = 5 μM, outside-out, 3 μM intracellular Ca2+, double-exponential fit
[5] = after removal of 5 μM kurarinone, outside-out

C=C(C)[C@H](CC=C(C)C)Cc1c(O)cc(OC)c2c1O[C@H](c1ccc(O)cc1O)CC2=O [kurarinone]
half-activation voltage (V1/2) of single-channel open-probability ([1]; 10 μM intracellular Ca2+, control 68.7±3.7 mV): 43.7±2.1 mV | single-channel conductance ([1]; 10 μM intracellular Ca2+, control 221.1±16.4): 238.3±8.7 pS | average opening-time of single channel ([1]; 50 mV, 2.98+/−0.34 ms in absence): 5.77 ± 0.90 ms | average closing time of single channel ([1]; 50 mV, 3.69±0.80 ms in absence): 3.60 ± 4.1 ms | activation time-constant (τactivation) ([2]; 0, 5, 10, 20 μM): not significantly increased | effect on tail-current ([2]; 5 μM on the extracellular surface, outside-out patch, 3 μM intracellular Ca2+): strongly potentiates the tail-current | association time-constant, fast phase (τfast) of potentiation [2, 4]: 1.47 ± 0.34 s | association time-constant, low-speed phase (τslow) of potentiation [2, 4]: 64.9 ± 8.8 s | maximum conductance relative to vehicle control ([2]; 20 μM): 1.8 times | shift of V1/2 in the negative direction ([2]; 20 μM vs vehicle): approximately 80 mV | half-active voltage (V1/2) of G-V relationship ([2]; 20 μM, 3 μM [Ca2+]i, vehicle 107.4±2.2 mV): 27.7±3.0 mV | maximum conductance (G/Gmax) ([2]; 20 μM, normalized to vehicle maximum): 1.35 | dissociation time-constant, fast phase of de-potentiation [2, 5]: 2.78 ± 0.95 s | dissociation time-constant, slow phase of de-potentiation [2, 5]: 90.06 ± 12.21 s | change in BKCa channel current on treatment from the inside of the cell ([2]; excised inside-out patch recording): no significant change | deactivation rate ([2]; increasing concentrations up to 20 μM, voltage-dependent): dramatically decreased | total voiding frequency for 3 hours ([3]; 5 mg/kg, vehicle 10.9±1.4): 6.9±0.8 | effect on voiding frequency ([3]; 0.5 and 5 mg/kg): reduced the voiding frequency for SHR in a dose-dependent manner
